# According to publication PMC6254985 (Journal of Experimental Pharmacology, 2018):
# Where a name gives a salt, the structure may show the parent alone. Read-outs that look alike come from different tables or passages of the source.
# Experiments:
# human D2S receptor = human D2S receptor (Homo sapiens, UniProt P14416); assay: [35S]GTPγS binding assay, antagonist activity, D2S; type: biochemical
# human D2L receptor = human D2L receptor (Homo sapiens, UniProt P14416); assay: [35S]GTPγS binding assay, antagonist activity, D2L; type: biochemical
# [1] = system: alpha-adrenergic receptors; assay: Inhibition of alpha-adrenergic receptors
# [2] = system: 5-HT2A, 5-HT2B, 5-HT2C, 5-HT6, 5-HT7, D1, D2S, D2L, D3, or D5; assay: Agonist effect in the presence of dopamine or norepinephrine; type: cell-based
# [3] = cited from earlier work
# Chain of human D2S receptor (P14416 1-414 isoform P14416-2): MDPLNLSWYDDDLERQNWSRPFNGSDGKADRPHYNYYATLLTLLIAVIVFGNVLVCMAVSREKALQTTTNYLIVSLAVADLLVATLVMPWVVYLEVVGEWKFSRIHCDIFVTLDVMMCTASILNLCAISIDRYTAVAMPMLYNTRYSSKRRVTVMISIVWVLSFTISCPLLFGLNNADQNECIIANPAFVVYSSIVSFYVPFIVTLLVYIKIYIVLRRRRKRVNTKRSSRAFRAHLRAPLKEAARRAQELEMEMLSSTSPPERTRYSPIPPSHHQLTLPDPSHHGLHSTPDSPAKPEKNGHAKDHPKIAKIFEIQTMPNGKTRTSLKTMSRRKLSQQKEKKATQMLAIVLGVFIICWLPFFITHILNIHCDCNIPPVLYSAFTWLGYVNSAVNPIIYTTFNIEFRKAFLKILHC
# Chain of human D2L receptor (P14416 whole entry): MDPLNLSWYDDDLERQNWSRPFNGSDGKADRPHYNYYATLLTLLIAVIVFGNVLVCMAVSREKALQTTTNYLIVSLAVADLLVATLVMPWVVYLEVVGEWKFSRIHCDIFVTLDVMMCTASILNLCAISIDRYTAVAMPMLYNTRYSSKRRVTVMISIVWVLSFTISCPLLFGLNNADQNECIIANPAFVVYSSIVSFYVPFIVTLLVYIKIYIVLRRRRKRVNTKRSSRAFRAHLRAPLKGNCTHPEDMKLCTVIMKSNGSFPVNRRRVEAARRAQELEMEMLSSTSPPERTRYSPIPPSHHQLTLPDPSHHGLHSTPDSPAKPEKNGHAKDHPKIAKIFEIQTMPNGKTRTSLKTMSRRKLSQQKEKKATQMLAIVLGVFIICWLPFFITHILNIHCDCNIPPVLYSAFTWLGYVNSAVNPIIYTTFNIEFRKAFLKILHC
SMILES,"Antagonist potency of R(−) relative to S(+) enantiomer, D2S (human D2S receptor; based on the IC50)","IC50 (human D2S receptor; read-out: IC50 of enantiomers, D2S, [35S]GTPγS binding assay)","Antagonist potency of R(−) relative to S(+) enantiomer, D2L (human D2L receptor; based on the IC50)","IC50 (human D2L receptor; read-out: IC50 of enantiomers, D2L, [35S]GTPγS binding assay)",IC50 (human D2S receptor),Inhibition of the alpha-adrenergic receptors [1],Agonist effect in the presence of dopamine or norepinephrine [2],Parkinsonism or extrapyramidal symptoms [3],Propensity for weight gain [3]
"CCc1c(C)[nH]c2c1C(=O)[C@@H](CN1CCOCC1)CC2 (single isomer, unassigned) [R(−) enantiomer]",~ 100 fold,48 nM,~300 fold,21 nM,–,–,–,–,–
"CCc1c(C)[nH]c2c1C(=O)C(CN1CCOCC1)CC2 (stereo not drawn) [SPN-810M, Molindone Hydrochloride]",–,–,–,–,84.4 nM,no significant inhibition,No agonist effect,little to no parkinsonism or extrapyramidal symptoms,low propensity for weight gain
